Data taken from patent publication EP3057951B1, “METHYLENE LINKED QUINOLINYL MODULATORS OF ROR-GAMMA-T” (Janssen Pharmaceutica NV, priority 2013, dated 2015).
Structures can show the parent of a compound that is named as a salt.

Tests used:
[1] = biological target: T1, wild type human RORγt ligand binding domain (RORyt LBD) (Homo sapiens, UniProt P51449); experiment: RORγt ThermoFluor assay (thermal shift, binding affinity KD)
T1 construct: His-tag (N); TurboTEV protease cleavage site (ENLYFQG) (N); made in house; host or cells: E. coli (pHIS1, modified pET vector)
T1 sequence (P51449 258-518): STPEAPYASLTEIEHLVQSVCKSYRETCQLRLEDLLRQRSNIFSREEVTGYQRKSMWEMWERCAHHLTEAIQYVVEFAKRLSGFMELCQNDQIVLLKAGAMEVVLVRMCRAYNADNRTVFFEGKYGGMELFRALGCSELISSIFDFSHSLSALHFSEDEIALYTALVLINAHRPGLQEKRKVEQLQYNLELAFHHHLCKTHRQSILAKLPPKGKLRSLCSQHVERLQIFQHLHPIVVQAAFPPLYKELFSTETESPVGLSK

[2] = biological target: T2, wild type human RORγt LBD (Homo sapiens, UniProt P51449); experiment: RORγt (LBD) Reporter Assay (GAL4-luciferase, HEK293T cells); format: cell-based; conditions: HEK293T cells; for inhibition at 6 µM: HEK-293T, read-out: RORγt (LBD) Reporter Assay, % inhibition @ 6 µM, 6 µM compound concentration
T2 construct: expressed in transfected cells; host or cells: HEK293T
T2 sequence (P51449 258-518): T1 sequence (P51449 258-518)

CON(C)c1nc2ccc(C(O)(c3ccc(C(F)(F)F)nc3)c3cncn3C)cc2c(N(C)OC)c1Cc1ccc(-n2cccn2)cc1 (centres unmarked) [Example 129, {2,4-Bis[methoxy(methyl)amino]-3-[4-(1H-pyrazol-1-yl)benzyl]quinolin-6-yl}(1-methyl-1H-imidazol-5-yl)[6-(trifluoromethyl)pyridin-3-yl]methanol]
Kd [1]: 1.7 µM | IC50 [2]: 1.5 µM | inhibition at 6 µM [2]: 110%

Cn1cncc1C(O)(c1ccc2nc(Cl)c(Cc3ccc(-n4cccn4)cc3)c(Cl)c2c1)c1ncccn1 (centres unmarked) [Example 130, {2,4-Dichloro-3-[4-(1H-pyrazol-1-yl)benzyl]quinolin-6-yl}(1-methyl-1H-imidazol-5-yl)pyrimidin-2-ylmethanol.TFA]
Kd [1]: 0.64 µM | IC50 [2]: 0.51 µM | inhibition at 6 µM [2]: 94%

CN(C)c1nc2ccc(C(O)(c3ccc(C(F)(F)F)nc3)c3cncn3C)cc2c(Cl)c1Cc1ccc(-n2cccn2)cc1 (centres unmarked) [Example 132, {4-Chloro-2-(dimethylamino)-3-[4-(1H-pyrazol-1-yl)benzyl]quinolin-6-yl}(1-methyl-1H-imidazol-5-yl)[6-(trifluoromethyl)pyridin-3-yl]methanol]
Kd [1]: 0.036 µM | IC50 [2]: 0.045 µM | inhibition at 6 µM [2]: 108%

Cn1cncc1C(O)(c1ccc(C(F)(F)F)nc1)c1ccc2nc(N3CC(F)(F)C3)c(Cc3ccc(-n4cccn4)cc3)c(Cl)c2c1 (centres unmarked) [Example 135a, {4-Chloro-2-(3,3-difluoroazetidin-1-yl)-3-[4-(1H-pyrazol-1-yl)benzyl]quinolin-6-yl}(1-methyl-1H-imidazol-5-yl)[6-(trifluoromethyl)pyridin-3-yl] methanol.TFA]
Kd [1]: 0.036 µM | IC50 [2]: 0.27 µM | inhibition at 6 µM [2]: 97%

Cc1cc(C(O)(c2ccc(Cl)cc2)c2cncn2C)cc2c(Cl)c(Cc3ccc(-n4cccn4)cc3)c(N3CCC3)nc12 (centres unmarked) [Example 136a]
Kd [1]: 0.15 µM | IC50 [2]: 0.14 µM | inhibition at 6 µM [2]: 94%

Cc1cc(C(O)(c2ccc(C(F)(F)F)nc2)c2cncn2C)cc2c(Cl)c(Cc3ccc(-n4cccn4)cc3)c(N3CCC3)nc12 (centres unmarked) [Example 137a, {2-Azetidin-1-yl-4-chloro-8-methyl-3-[4-(1H-pyrazol-1-yl)benzyl]quinolin-6-yl}(1-methyl-1H-imidazol-5-yl)[6-(trifluoromethyl)pyridin-3-yl]methanol]
Kd [1]: 0.009 µM | IC50 [2]: 0.17 µM | inhibition at 6 µM [2]: 97%

Cn1cncc1C(O)(c1ccc(Cl)cc1)c1ccc2nc(N3CCC3)c(Cc3ccc(-n4cccn4)cc3)c(Cl)c2c1 (centres unmarked) [Example 138a, {2-Azetidin-1-yl-4-chloro-3-[4-(1H-pyrazol-1-yl)benzyl]quinolin-6-yl}(4-chlorophenyl)(1-methyl-1H-imidazol-5-yl)methanol]
Kd [1]: 0.13 µM | IC50 [2]: 0.13 µM | inhibition at 6 µM [2]: 98%

Cc1ccc(C(O)(c2ccc3nc(Cl)c(Cc4ccc(C(F)(F)F)cc4)c(Cl)c3c2)c2cnnn2C)c(C)n1 (centres unmarked) [Example 139]
Kd [1]: 0.00014 µM | IC50 [2]: 0.02 µM | inhibition at 6 µM [2]: 98%

Cc1ccc(C(O)(c2ccc3nc(N4CCC4)c(Cc4ccc(C(F)(F)F)cc4)c(Cl)c3c2)c2cnnn2C)c(C)n1 (centres unmarked) [Example 140a, {2-Azetidin-1-yl-4-chloro-3-[4-(trifluoromethyl)benzyl]quinolin-6-yl}(2,6-dimethylpyridin-3-yl)(1-methyl-1H-1,2,3-triazol-5-yl)methanol]
Kd [1]: 0.00019 µM | IC50 [2]: 0.022 µM | inhibition at 6 µM [2]: 99%

Cc1ccc(C(O)(c2ccc3nc(N4CCC4)c(Cc4ccc(-n5cccn5)cc4)c(Cl)c3c2)c2cnnn2C)c(C)n1 (centres unmarked) [Example 141a, {2-Azetidin-1-yl-4-chloro-3-[4-(1H-pyrazol-1-yl)benzyl]quinolin-6-yl}(2,6-dimethylpyridin-3-yl)(1-methyl-1H-1,2,3-triazol-5-yl)methanol]
Kd [1]: 11 µM | IC50 [2]: > 6 µM | inhibition at 6 µM [2]: 42%

Cc1cc(C(O)(c2ccc(Cl)cc2)c2cncn2C)cc2c(Cl)c(Cc3ccc(-n4cccn4)cc3)c(S(C)(=O)=O)nc12 (centres unmarked) [Example 142, {4-Chloro-8-methyl-2-(methylsulfonyl)-3-[4-(1H-pyrazol-1-yl)benzyl]quinolin-6-yl}(4-chlorophenyl)(1-methyl-1H-imidazol-5-yl)methanol]
Kd [1]: 1.5 µM | IC50 [2]: 1.6 µM | inhibition at 6 µM [2]: 87%

Cc1ccc(C(O)(c2ccc3nc(NC4CC4)c(Cc4ccc(C(F)(F)F)cc4)c(Cl)c3c2)c2cnnn2C)c(C)n1 (centres unmarked) [Example 143a, {4-Chloro-2-(cyclopropylamino)-3-[4-(trifluoromethyl)benzyl]quinolin-6-yl}(2,6-dimethylpyridin-3-yl)(1-methyl-1H-1,2,3-triazol-5-yl)methanol]
Kd [1]: 0.0072 µM | inhibition at 6 µM [2]: 101%

Cc1ccc(C(O)(c2ccc3nc(Cl)c(Cc4ccc(C(F)(F)F)cc4)c(NC4CC4)c3c2)c2cnnn2C)c(C)n1 (centres unmarked) [Example 144a, {2-Chloro-4-(cyclopropylamino)-3-[4-(trifluoromethyl)benzyl]quinolin-6-yl}(2,6-dimethylpyridin-3-yl)(1-methyl-1H-1,2,3-triazol-5-yl)methanol]
Kd [1]: 0.012 µM | IC50 [2]: 0.074 µM | inhibition at 6 µM [2]: 99%

COc1nc2ccc(C(O)(c3cncn3C)c3cncn3C)cc2c(Cl)c1Cc1ccc(C(F)(F)F)cc1 [Example 149, (4-Chloro-2-methoxy-3-(4-(trifluoromethyl)benzyl)quinolin-6-yl)bis(1-methyl-1H-imidazol-5-yl)methanol]
Kd [1]: 0.00034 µM | IC50 [2]: 0.0024 µM | inhibition at 6 µM [2]: 96%

Cn1cncc1C(O)(c1ccc2nc(C(F)(F)F)c(Cc3ccccc3)c(O)c2c1)c1ccccn1 (centres unmarked) [Example 152, 3-Benzyl-6-(hydroxy(1-methyl-1H-imidazol-5-yl)(pyridin-2-yl)methyl)-2-(trifluoromethyl)quinolin-4-ol^.TFA]
Kd [1]: 38 µM | IC50 [2]: 4.8 µM | inhibition at 6 µM [2]: 70%

Cn1cncc1C(O)(c1ccc(C(F)(F)F)nc1)c1ccc2nc(-c3nccn3C)c(Cc3ccccc3)c(C#N)c2c1 (centres unmarked) [Example 153, 3-Benzyl-6-(hydroxy(1-methyl-1H-imidazol-5-yl)(6-(trifluoromethyl)pyridin-3-yl)methyl)-2-(1-methyl-1H-imidazol-2-yl)quinoline-4-carbonitrile^.TFA]
Kd [1]: 15 µM | IC50 [2]: > 6 µM | inhibition at 6 µM [2]: 44%

COc1nc2ccc(C(O)(c3oc(C)nc3C)c3cnnn3C)cc2c(Cl)c1Cc1ccc(C(F)(F)F)cc1 (centres unmarked) [Example 156a, (4-chloro-2-methoxy-3-(4-(trifluoromethyl)benzyl)quinolin-6-yl)(2,4-dimethylozazol-5-yl)(1-methyl-1H-1,2,3-triazol-5-yl)methanol]
Kd [1]: 0.00063 µM | IC50 [2]: 0.0066 µM | inhibition at 6 µM [2]: 94%

COc1nc2ccc(C(O)(c3ccc(F)cc3)C3CCN(C(C)=O)CC3)cc2c(Cl)c1Cc1ccc(-n2cccn2)cc1 (centres unmarked) [Example 157a, 1-(4-((3-(4-(1H-Pyrazol-1-yl)benzyl)4-chloro-2-methoxyquinolin-6-yl)(4-fluorophenyl)(hydroxy)methyl)piperidin-1-yl)ethanone]
Kd [1]: 0.0039 µM | IC50 [2]: ~0.007 µM | inhibition at 6 µM [2]: 93%

COc1nc2ccc(C(O)(c3ccc(F)cc3)c3cccnc3)cc2c(Cl)c1Cc1ccc(-n2cccn2)cc1 (centres unmarked) [Example 158a, (3-(4-(1H-Pyrazol-1-yl)benzyl)-4-chloro-2-methoxyquinolin-6-yl)(4-fluorophenyl)(pyridin-3-yl)methanol]
Kd [1]: 0.021 µM | IC50 [2]: 0.057 µM | inhibition at 6 µM [2]: 97%

COc1ccc(C(O)(c2cccnc2)c2ccc3nc(OC)c(Cc4ccc(-n5cccn5)cc4)c(Cl)c3c2)cc1OC (centres unmarked) [Example 159a, (3-(4-(1H-Pyrazol-1-yl)benzyl)-4-chloro-2-methoxyquinolin-6-yl)(3,4-dimethoxyphenyl)(pyridin-3-yl)methanol]
Kd [1]: 0.029 µM | IC50 [2]: 0.12 µM | inhibition at 6 µM [2]: 107%

COc1nc2ccc(C(O)(c3ccc(F)cc3)c3cncn3C)cc2c(Cl)c1Cc1ccc(-n2cccn2)cc1 (centres unmarked) [Example 160a, (3-(4-(1H-Pyrazol-1-yl)benzyl)-4-chloro-2-methoxyquinolin-6-yl)(4-fluorophenyl)(1-methyl-1H-imidazol-5-yl)methanol]
Kd [1]: 0.049 µM | IC50 [2]: 0.059 µM | inhibition at 6 µM [2]: 112%

COc1nc2ccc(C(O)(c3cccnc3)c3ccc(Cl)c(Cl)c3)cc2c(Cl)c1Cc1ccc(-n2cccn2)cc1 (centres unmarked) [Example 161a, (3-(4-(1H-Pyrazol-1-yl)benzyl)-4-chloro-2-methoxyquinolin-6-yl)(3,4-dichlorophenyl)(pyridin-3-yl)methanol]
Kd [1]: 0.015 µM | IC50 [2]: 0.057 µM | inhibition at 6 µM [2]: 96%
